The values that follow come from US6545033B1, “Fused 1-(2,6-dichloro-4-trifluoromethylphenyl)-pyrazoles, the synthesis thereof and the use thereof as pesticides” (3-Dimensional Pharmaceuticals, Inc., priority 1999, dated 2003).

The subject of assay [1] is cat fleas (Ctenocephalides felis), CO Fleas. Put plainly: In vivo cat flea contact assay, CO fleas. The conditions noted are these: Ctenocephalides felis, topical; contact with treated filter disk in vial, about 24-30 hours; mM = concentration of the DMSO solution, about 1 μL applied; read-out: LD50 (mM), CO Fleas. A digest of the protocol: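 Compound in DMSO (0.05–100 mM stock), ~1 μL dried 24–48 h on GF/C disk in sealed glass vial; ~20 newly emerged fleas added after cold sedation, held in dark. Healthy, moribund and dead fleas counted after ~24–30 h; percent mortality corrected for DMSO-only control vials.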

The target in another assay is T1, Housefly GABA receptors (Musca domestica, UniProt Q75NA5).
T1 sequence (Q75NA5 30-576): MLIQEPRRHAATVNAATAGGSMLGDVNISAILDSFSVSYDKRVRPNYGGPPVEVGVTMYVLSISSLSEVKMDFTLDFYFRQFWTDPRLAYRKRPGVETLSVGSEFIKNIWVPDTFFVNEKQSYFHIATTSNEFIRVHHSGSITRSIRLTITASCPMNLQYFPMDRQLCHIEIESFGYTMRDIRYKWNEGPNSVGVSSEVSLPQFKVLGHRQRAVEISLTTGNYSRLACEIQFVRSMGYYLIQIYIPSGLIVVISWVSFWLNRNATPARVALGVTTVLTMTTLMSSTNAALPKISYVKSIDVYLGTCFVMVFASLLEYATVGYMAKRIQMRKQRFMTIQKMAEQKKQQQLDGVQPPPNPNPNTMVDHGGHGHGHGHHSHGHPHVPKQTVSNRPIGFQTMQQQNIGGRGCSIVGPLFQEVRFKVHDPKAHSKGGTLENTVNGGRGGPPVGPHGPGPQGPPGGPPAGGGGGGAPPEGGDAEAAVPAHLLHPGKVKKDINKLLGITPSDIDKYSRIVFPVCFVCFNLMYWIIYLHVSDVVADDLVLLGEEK
Put plainly: In vitro assay of binding to housefly GABA receptors (3H-EBOB displacement, housefly neuronal membranes). As to conditions: for Compounds with the most activity (housefly 3H-EBOB binding): housefly neuronal membranes. A digest of the protocol: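 Head neuronal membranes (20/35% sucrose interface) incubated 45 min at 24 °C in 10 mM phosphate, 300 mM NaCl, pH 7.5, with 3H-EBOB (added solution 5.2 nM) and membranes added at 0.5–1.0 mg/mL. Bound label captured on polyethylenimine-treated glass fibre filters and counted by scintillation.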

Regarding `FC(F)(F)c1cc(Cl)c(-n2cc3c(n2)CSC3)c(Cl)c1` [Compound 3, 2-[2,6-Dichloro-4-(trifluoromethyl)phenyl]-4,6-dihydrothieno-[3,4-c]pyrazole], in assay [1], the LC50 was 1.7 mM. Moreover, at Housefly GABA receptors, the “Compounds with the most activity (housefly 3H-EBOB binding)” value (shortened to “Compounds with the most activity”) is “most activity”.
Take `FC(F)(F)c1cc(Cl)c(-n2cc3c(n2)CCC3)c(Cl)c1` [Compound 11, 2-[2,6-Dichloro-4-(trifluoromethyl)phenyl]-2,4,5,6-tetrahydrocyclopenta[c]pyrazole]: the LC50 in assay [1] is 8 mM. The IC50 at Housefly GABA receptors (displacement of 5.2 nM 3H-EBOB, housefly head neuronal membranes, about 45 min at about 24° C., read-out: IC50 (nM), Fly Head) worked out at 83 nM. Besides, the “Compounds with the most activity” value on Housefly GABA receptors is “most activity”.
For `FC(F)(F)c1cc(Cl)c(-n2cc3c(n2)CCCCC3)c(Cl)c1` [Compound 15, 2-[2,6-Dichloro-4-(trifluoromethyl)phenyl]-2,4,5,6,7,8-hexahydrocyclohepta[c]pyrazole], the LC50 in assay [1] was 29.5 mM. Moreover, the “Compounds with the most activity” value on Housefly GABA receptors was “most activity”.
